Laboratory results taken from paper PMC7367873, “Dissecting the sequence determinants for dephosphorylation by the catalytic subunits of phosphatases PP1 and PP2A” (Nature Communications, 2020).

What was measured:
[1] = system: GFP-14-3-3β and its binding proteins; assay: GFP-14-3-3β co-IP with LC-MS/MS label-free quantification, untreated versus PP1c-treated; parameters: species or system human
GFP-14-3-3β = GFP-14-3-3β co-IP with LC-MS/MS, untreated GFP-14-3-3β versus GFP control (14-3-3 interactome); type: binding, human
[2] = PP1 vs untreated, label-free quantification
[3] = untreated vs GFP, label-free quantification
[4] = pairwise comparison PP1 vs untreated
[5] = pairwise comparison untreated vs GFP
[6] = GFP-14-3-3β co-IP LC-MS/MS, PP1 vs untreated, student's t-test, label-free quantification, 3 replicates each
[7] = GFP-14-3-3β co-IP LC-MS/MS, untreated vs GFP, student's t-test, label-free quantification, 3 replicates each
[8] = PP1 vs untreated, LFQ intensities, replicates 1-3
[9] = untreated vs GFP, LFQ intensities, replicates 1-3
[10] = pairwise comparison PP1 vs untreated, student's t-test, 3 replicates each, LC-MS/MS label-free quantification
[11] = pairwise comparison untreated GFP-14-3-3β vs GFP, student's t-test, 3 replicates each, LC-MS/MS label-free quantification
[12] = PP1 vs untreated, LFQ intensities, 3 replicates each
[13] = untreated vs GFP, LFQ intensities, 3 replicates each

MGST3
Difference (log2), PP1 vs untreated ([1]; log2 difference, pairwise comparison PP1 vs untreated, label-free quantification, 3 replicates each): 1.301 | Difference (log2), untreated vs GFP (GFP-14-3-3β; log2 difference, pairwise comparison untreated vs GFP, label-free quantification, 3 replicates each): 0.5005

MCM7
Difference (log2), PP1 vs untreated [1, 2]: 1.01 log2 | Difference (log2), untreated vs GFP (GFP-14-3-3β; [3]): 0.04561 log2

DNAJA1
Difference (log2), PP1 vs untreated [1, 4]: -0.1402 log2 | Difference (log2), untreated vs GFP (GFP-14-3-3β; [5]): -0.4796 log2

TOP2A
Difference (log2), PP1 vs untreated [1, 6]: -0.6623 log2 | Difference (log2), untreated vs GFP (GFP-14-3-3β; [7]): 3 log2

YWHAE
Difference (log2), PP1 vs untreated [1, 8]: -1.3 log2 | Difference (log2), untreated vs GFP (GFP-14-3-3β; [9]): 6.648 log2

CLPX
Difference (log2), PP1 vs untreated [1, 2]: 1.1943 log2 | Difference (log2), untreated vs GFP (GFP-14-3-3β; [3]): 0.9407 log2

ARAF
Difference (log2), PP1 vs untreated [1, 10]: -3.95 log2 | Difference (log2), untreated vs GFP (GFP-14-3-3β; [11]): 3.851 log2

YWHAQ
Difference (log2), PP1 vs untreated [1, 8]: -1.354 log2 | Difference (log2), untreated vs GFP (GFP-14-3-3β; [9]): 7.871 log2

RNF5
Difference (log2), PP1 vs untreated [1, 6]: -0.2892 log2 | Difference (log2), untreated vs GFP (GFP-14-3-3β; [7]): 0.3906 log2

NAV1
Difference (log2), PP1 vs untreated [1, 4]: -0.101 log2 | Difference (log2), untreated vs GFP (GFP-14-3-3β; [5]): 1.95 log2

MYO5C
Difference (log2), PP1 vs untreated [1, 2]: 0.9874 log2 | Difference (log2), untreated vs GFP (GFP-14-3-3β; [3]): -0.7461 log2

NUMA1
Difference (log2), PP1 vs untreated [1, 8]: -0.7467 log2 | Difference (log2), untreated vs GFP (GFP-14-3-3β; [9]): 2.2393 log2

TSC2
Difference (log2), PP1 vs untreated [1, 10]: -4.834 log2 | Difference (log2), untreated vs GFP (GFP-14-3-3β; [11]): 4.192 log2

SQSTM1
Difference (log2), PP1 vs untreated [1, 6]: -0.4375 log2 | Difference (log2), untreated vs GFP (GFP-14-3-3β; [7]): 0.1051 log2

PNN
Difference (log2), PP1 vs untreated [1, 6]: -0.4869 log2 | Difference (log2), untreated vs GFP (GFP-14-3-3β; [7]): 2.978 log2

SFN
Difference (log2), PP1 vs untreated [1, 10]: -4.908 log2 | Difference (GFP-14-3-3β; UntrtedvsGFP, Perseus raw output, LFQ intensity difference): 10.1517 | Difference (log2), untreated vs GFP (GFP-14-3-3β; [11]): 10.1517 log2

WWC2
Difference (log2), PP1 vs untreated [1, 10]: -3.571 log2 | Difference (log2), untreated vs GFP (GFP-14-3-3β; [11]): 4.409 log2

FYN
Difference (log2), PP1 vs untreated [1, 2]: 0.8257 log2 | Difference (log2), untreated vs GFP (GFP-14-3-3β; [3]): -1.633 log2

IMPDH2
Difference (log2), PP1 vs untreated [1, 2]: 1.157 log2 | Difference (log2), untreated vs GFP (GFP-14-3-3β; [3]): -1.172 log2

SNRNP200
Difference (log2), PP1 vs untreated [1, 6]: -0.2654 log2 | Difference (log2), untreated vs GFP (GFP-14-3-3β; [7]): 1.652 log2

SEC16A
Difference (log2), PP1 vs untreated [1, 8]: -1.037 log2 | Difference (log2), untreated vs GFP (GFP-14-3-3β; [9]): 2.809 log2

LARP4B
Difference (log2), PP1 vs untreated [1, 2]: 0.8043 log2 | Difference (log2), untreated vs GFP (GFP-14-3-3β; [3]): 0.9646 log2

CORO1C
Difference (log2), PP1 vs untreated [1, 12]: 0.3782 log2 | Difference (log2), untreated vs GFP (GFP-14-3-3β; [13]): -0.8872 log2

HSPA8
Difference (log2), PP1 vs untreated [1, 6]: -0.3347 log2 | Difference (log2), untreated vs GFP (GFP-14-3-3β; [7]): -0.3706 log2

USP10
Difference (log2), PP1 vs untreated [1, 12]: 0.4174 log2 | Difference (log2), untreated vs GFP (GFP-14-3-3β; [13]): 1.017 log2

CKAP5
Difference (log2), PP1 vs untreated [1, 6]: -0.2118 log2 | Difference (log2), untreated vs GFP (GFP-14-3-3β; [7]): -0.6501 log2
